This note sets out measurements from patent US12552753B2, “Methods and compositions for targeting Tregs using CCR8 inhibitors” (Nanjing Immunophage Biomedical Co., Ltd., priority 2020, dated 2026).

The target in one assay is CCR8 (Homo sapiens, UniProt P51685). Description: Tango assay (Tango-CCR8-Gal4-CHO-K1 cells, CCL1-stimulated, ONE-Glo luminescence). The following applies: Tango Assay IC50, Inhibition of CCR8 Tango cell in vitro.
Chain of CCR8 (P51685 whole entry, the tested form may be a part): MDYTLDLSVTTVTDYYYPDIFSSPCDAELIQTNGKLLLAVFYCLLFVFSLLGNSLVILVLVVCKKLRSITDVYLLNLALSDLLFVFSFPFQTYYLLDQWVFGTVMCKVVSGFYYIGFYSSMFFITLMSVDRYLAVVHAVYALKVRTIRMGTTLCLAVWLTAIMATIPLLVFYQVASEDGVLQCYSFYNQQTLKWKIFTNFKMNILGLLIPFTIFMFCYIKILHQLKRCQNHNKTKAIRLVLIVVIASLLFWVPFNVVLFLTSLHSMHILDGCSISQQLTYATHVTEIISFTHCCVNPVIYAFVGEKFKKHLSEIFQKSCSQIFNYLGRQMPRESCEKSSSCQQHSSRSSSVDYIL
Take `CCCC(=O)N1CCC(CNS(=O)(=O)c2ccc(NC(=O)c3ccccc3C)c3ccccc23)C1` (stereo not shown) [Compound 15, N-(4-(N-((1-butyrylpyrrolidin-3-yl)methyl)sulfamoyl)naphthalen-1-yl)-2-methylbenzamide]: the IC50 was more than 10000 nM.

`Cc1ccccc1C(=O)Nc1ccc(S(=O)(=O)Nc2ccc3c(c2)N(CCN(C)C)C(=O)CO3)c2ccccc12` [Compound 20, N-(4-(N-(4-(2-(dimethylamino)ethyl)-3-oxo-3,4-dihydro-2H-benzo[b][1,4]oxazin-6-yl)sulfamoyl)naphthalen-1-yl)-2-methylbenzamide] gave an IC50 of more than 10000 nM.

Turning to `CN(C)CC(=O)N1CCOc2ccc(NS(=O)(=O)c3ccc4ccccc4c3)cc21` [Compound 22, N-(4-(2-(dimethylamino)acetyl)-3,4-dihydro-2H-benzo[b][1,4]oxazin-6-yl)naphthalene-2-sulfonamide], the concentration for half-maximal inhibition (IC50) was more than 10000 nM.

As to `Cc1ccccc1C(=O)Nc1ccc(S(=O)(=O)Nc2ccc3c(c2)N(CCN(C)C)CCO3)c2ccccc12` [Compound 23, N-(4-(N-(4-(2-(dimethylamino)ethyl)-3,4-dihydro-2H-benzo[b][1,4]oxazin-6-yl)sulfamoyl)naphthalen-1-yl)-2-methylbenzamide], the IC50 was more than 10000 nM.

For `Cc1ccccc1C(=O)Nc1ccc(S(=O)(=O)NC(C)C2CCCN(C(=O)OC(C)(C)C)C2)c2ccccc12` (stereo not shown) [Compound 24, tert-butyl 3-(1-(4-(2-methylbenzamido)naph-thalene-1-sulfonamido)ethyl)piper-idine-1-carboxylate], the IC50 is 930 nM.

As for `Cc1ccccc1C(=O)Nc1ccc(S(=O)(=O)NCc2cccc(N(C)C)c2)c2ccccc12` [Compound 25, N-(4-(N-(3-(dimethylamino)benzyl)sulfamoyl)naphthalen-1-yl)-2-methylbenzamide], inhibition was half-maximal at 1040 nM (IC50).

The molecule `Cc1ccccc1C(=O)Nc1ccc(S(=O)(=O)NC(C)c2cccc(N(C)C)c2)c2ccccc12` (stereo not shown) [Compound 26, N-(4-(N-(1-(3-(dimethylamino)phenyl)ethyl)sulfamoyl)naph-thalen-1-yl)-2-methylbenzamide] had an IC50 of 83 nM.

Regarding `Cc1ccccc1C(=O)Nc1ccc(S(=O)(=O)NC2CCCc3ccccc32)c2ccccc12` (stereo not shown) [Compound 28, 2-methyl-N-(4-(N-(1,2,3,4-tetrahydronaphthalen-1-yl)sulfamoyl)naphtha-len-1-yl)benzamide], the IC50 is 19 nM.

The molecule `Cc1ccccc1C(=O)Nc1ccc(S(=O)(=O)NC2CCOc3ccccc32)c2ccccc12` (stereo not shown) [Compound 29, N-(4-(N-(chroman-4-yl)sulfamoyl)naphthalen-1-yl)-2-methylbenzamide] showed an IC50 of 26 nM.

Take `Cc1ccccc1C(=O)Nc1ccc(S(=O)(=O)NC2CCNc3ccccc32)c2ccccc12` (stereo not shown) [Compound 30, 2-methyl-N-(4-(N-(1,2,3,4-tetrahydroquinolin-4-yl)sulfamoyl)naphthalen-1-yl)benzamide]: the midpoint of inhibition, the IC50, lay at 73 nM.

Molecule `CC(=O)N1CCC(NS(=O)(=O)c2ccc(NC(=O)c3ccccc3C)c3ccccc23)c2ccccc21` (stereo not shown) [Compound 31, N-(4-(N-(1-acetyl-1,2,3,4-tetrahydroquinolin-4-yl)sulfamoyl)naphthalen-1-yl)-2-methylbenzamide] yielded an IC50 of 1080 nM.

On to `Cc1ccccc1C(=O)Nc1ccc(S(=O)(=O)NC2CCN(C)c3ccccc32)c2ccccc12` (stereo not shown) [Compound 32, 2-methyl-N-(4-(N-(1-methyl-1,2,3,4-tetrahydroquinolin-4-yl)sulfamoyl)naphthalen-1-yl)benzamide], for which it took 89 nM to reach half-maximal inhibition (IC50).

Molecule `Cc1ccccc1C(=O)Nc1ccc(S(=O)(=O)Nc2ccc3c(c2)N(CCN(C)C)CC3)c2ccccc12` [Compound 33, N-(4-(N-(1-(2-(dimethylamino)ethyl)indolin-6-yl)sulfamoyl)naphthalen-1-yl)-2-methylbenzamide] yielded a half-maximal inhibitory concentration (IC50) of more than 10000 nM.

With `Cc1ccccc1C(=O)Nc1ccc(S(=O)(=O)Nc2ccc3c(c2)CN(CCCN(C)C)C3)c2ccccc12` [Compound 35, N-(4-(N-(2-(3-(dimethylamino)propyl)isoindolin-5-yl)sulfamoyl)naphthalen-1-yl)-2-methylbenzamide], the IC50 was more than 10000 nM.

`Cc1ccccc1C(=O)Nc1ccc(S(=O)(=O)Nc2ccc3c(c2)N(C(=O)CN(C)C)CC3)c2ccccc12` [Compound 36, N-(4-(N-(1-(2-(dimethylamino)acetyl)indolin-6-yl)sulfamoyl)naphthalen-1-yl)-2-methylbenzamide]: the IC50 was more than 10000 nM.

Turning to `Cc1ccccc1C(=O)Nc1ccc(S(=O)(=O)Nc2ccc3c(c2)CN(C(=O)CN(C)C)C3)c2ccccc12` [Compound 37, N-(4-(N-(2-(2-(dimethylamino)acetyl)isoindolin-5-yl)sulfamoyl)naphthalen-1-yl)-2-methylbenzamide], the IC50 was more than 10000 nM.

In the case of `Cc1ccccc1C(=O)Nc1ccc(S(=O)(=O)N(C)c2ccc3c(c2)N(C(=O)CN(C)C)CC3)c2ccccc12` [Compound 38, N-(4-(N-(1-(2-(dimethylamino)acetyl)indolin-6-yl)-N-methylsulfamoyl)naph-thalen-1-yl)-2-methylbenzamide], the IC50 is 1680 nM.

The molecule `COc1cc2c(cc1NS(=O)(=O)c1ccc(NC(=O)c3ccccc3C)c3ccccc13)N(C(C)=O)CC2` [Compound 39, N-(4-(N-(1-acetyl-5-methoxyindolin-6-yl)sulfamoyl)naphthalen-1-yl)-2-methylbenzamide] yielded an IC50 of more than 10000 nM.

Take `CC(=O)N1CC(C)(C)c2ccc(NS(=O)(=O)c3ccc(NC(=O)c4ccccc4C)c4ccccc34)cc21` [Compound 40, N-(4-(N-(1-acetyl-3,3-dimethylindolin-6-yl)sulfamoyl)naphthalen-1-yl)-2-methylbenzamide]: the IC50 was more than 10000 nM.

Molecule `Cc1ccccc1C(=O)Nc1ccc(S(=O)(=O)Nc2ccc3c(c2)CN(C(=O)CN(C)C)CC3)c2ccccc12` [Compound 41, N-(4-(N-(2-(2-(dimethylamino)acetyl)-1,2,3,4-tetrahydroisoquinolin-7-yl)sulfamoyl)naphthalen-1-yl)-2-methylbenzamide] registered an IC50 of more than 10000 nM.

`Cc1ccccc1C(=O)Nc1ccc(S(=O)(=O)Nc2ccc3c(c2)CCN(C(=O)CN(C)C)C3)c2ccccc12` [Compound 42, N-(4-(N-(2-(2-(dimethylamino)acetyl)-1,2,3,4-tetrahydroisoquinolin-6-yl)sulfamoyl)naphthalen-1-yl)-2-methylbenzamide] showed an IC50 of more than 10000 nM.

The molecule `CCCC(=O)NC12CC(NS(=O)(=O)c3ccc(NC(=O)c4ccccc4C)c4ccccc34)(C1)C2` [Compound 43, N-(4-(N-(3-butyramidobicyclo[1.1.1]pentan-1-yl)sulfamoyl)naphthalen-1-yl)-2-methylbenzamide] displayed an IC50 of more than 10000 nM.

Molecule `CN1CCN(C(=O)N2CCC(NS(=O)(=O)c3ccc4[nH]c(-c5ccccc5)nc4c3)CC2)CC1` [Compound 44, N-(1-(4-methylpiperazine-1-carbonyl)piperidin-4-yl)-2-phenyl-1H-m benzo[d]imidazole-5-sulfonamide] came in with an IC50 of more than 10000 nM.

Take `Cc1ccccc1C(=O)Nc1ccc(S(=O)(=O)NC2CCC(C(=O)N(C)C)CC2)c2ccccc12` (stereo not shown) [Compound 45, N-(4-(N-(4-(dimethylcarbamoyl)cy-clohexyl)sulfamoyl)naph-thalen-1-yl)-2-methylbenzamide]: the IC50 stood at 2700 nM.

For the molecule `Cc1ccccc1C(=O)Nc1ccc(S(=O)(=O)NC2CCC(C(=O)N3CCN(C)CC3)CC2)c2ccccc12` (stereo not shown) [Compound 46, 2-methyl-N-(4-(N-(4-(4-methylpiperazine-1-carbonyl)cyclohexyl)sul-famoyl)naphthalen-1-yl)benzamide], the IC50 is more than 10000 nM.

In the case of `Cc1ccccc1C(=O)Nc1ccc(S(=O)(=O)N[C@@H]2CCN3C(=O)CC[C@@H]3C2)c2ccccc12` [Compound 47, 2-methyl-N-(4-(N-((7R,8aR)-3-oxooctahydroindolizin-7-yl)sulfamoyl)naphthalen-1-yl)benzamide], the IC50 was determined as 23 nM.

Molecule `Cc1ccccc1C(=O)Nc1ccc(S(=O)(=O)NC(CO)C2CCCCC2)c2ccccc12` (stereo not shown) [Compound 48, N-(4-(N-(1-cyclohexyl-2-hydroxyethyl)sulfamoyl)naphthalen-1-yl)-2-methylbenzamide] showed an IC50 of 170 nM.

With `COC(=O)[C@@H](NS(=O)(=O)c1ccc(NC(=O)c2ccccc2C)c2ccccc12)C1CCCCC1` [Compound 49, (S)-methyl 2-cyclohexyl-2-(4-(2-methylbenzamido)naph-thalene-1-sulfonamido)acetate], the concentration for half-maximal inhibition (IC50) was found to be 520 nM.

The molecule `COC(=O)[C@H](NS(=O)(=O)c1ccc(NC(=O)c2ccccc2C)c2ccccc12)C1CCCCC1` [Compound 50, (R)-methyl 2-cyclohexyl-2-(4-(2-methylbenzamido)naph-thalene-1-sulfonamido)acetate] gave an IC50 of 12 nM.

In the case of `COc1ccccc1C(C)NS(=O)(=O)c1ccc(NC(=O)c2ccccc2C)c2ccccc12` (stereo not shown) [Compound 51, N-(4-(N-(1-(2-methoxyphenyl)ethyl)sul-famoyl)naphthalen-1-yl)-2-methylbenzamide], the IC50 is more than 10000 nM.

Molecule `Cc1ccccc1C(=O)Nc1ccc(S(=O)(=O)NC2CCc3n[nH]cc3C2)c2ccccc12` (stereo not shown) [Compound 52, 2-methyl-N-(4-(N-(4,5,6,7-tetrahydro-2H-indazol-5-yl)sulfamoyl)naphthalen-1-yl)benzamide] returned a concentration for half-maximal inhibition (IC50) of more than 10000 nM.

On to `Cc1ccccc1C(=O)Nc1ccc(S(=O)(=O)NC2CCOc3ccccc32)cc1` (stereo not shown) [Compound 53, N-(4-(N-(chroman-4-yl)sulfamoyl)phenyl)-2-methylbenzamide], for which the IC50 was more than 10000 nM.

Still in this assay, the particulars now being: read-out: Tango Assay IC50, Inhibition of CCR8 Tango cell in vitro.
Consider `CCCC(=O)N1CCCC(C(C)NS(=O)(=O)c2ccc(NC(=O)c3ccccc3C)c3ccccc23)C1` (stereo not shown) [Compound 16, N-(4-(N-(1-(1-butyrylpiperidin-3-yl)ethyl)sulfamoyl)naph-thalen-1-yl)-2-methylbenzamide], for which the IC50 worked out at 500 nM.

Consider `Cc1ccccc1C(=O)Nc1ccc(S(=O)(=O)NC(C)C2CCCNC2)c2ccccc12` (stereo not shown) [Compound 17, 2-methyl-N-(4-(N-(1-(piperidin-3-yl)ethyl)sulfamoyl)naph-thalen-1-yl)benzamide], for which the IC50 was 112 nM.

Broadly, the IC50 is the midpoint of a concentration-inhibition curve.
